# Values joined by “and” are separate entries in the source; they are usually repeats but may differ in a detail not shown here. Identical values can stand only once. “Also recorded” adds a separate entry of the source. Like-named read-outs stand apart in the source and are kept apart here.
# How the values were obtained:
# [1] = target: T1, PL (pancreatic lipase) from porcine pancreas (Sus scrofa, UniProt P00591); test: Kinetics of PL inhibition (Lineweaver-Burk plots); format: biochemical
# T1 sequence (P00591 1-450): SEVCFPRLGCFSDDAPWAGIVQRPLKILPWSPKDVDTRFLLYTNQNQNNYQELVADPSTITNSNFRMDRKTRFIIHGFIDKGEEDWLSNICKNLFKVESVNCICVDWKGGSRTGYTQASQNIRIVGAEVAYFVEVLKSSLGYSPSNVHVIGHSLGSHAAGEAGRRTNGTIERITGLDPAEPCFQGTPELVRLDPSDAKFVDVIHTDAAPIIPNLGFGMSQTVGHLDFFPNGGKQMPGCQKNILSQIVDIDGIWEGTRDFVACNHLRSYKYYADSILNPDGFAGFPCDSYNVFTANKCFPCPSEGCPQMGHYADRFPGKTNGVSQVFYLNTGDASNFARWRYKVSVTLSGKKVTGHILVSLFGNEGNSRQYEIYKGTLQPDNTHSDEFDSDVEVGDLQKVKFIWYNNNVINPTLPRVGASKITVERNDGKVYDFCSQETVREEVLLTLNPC
# Protocol: The inhibition of PL by LTS0059529 on PL was also determined using Lineweaver–Burk graphs, which plot the reciprocal of initial velocity (v 0 ) against the reciprocal of substrate concentration.
# The mode of inhibition of PL in the presence of LTS0059529 was determined by elaboration of UV‐vis spectroscopic data with Lineweaver–Burk plots. […] The competitive inhibition constants K i was calculated from the following equation. (2) v0=vmaxS/Km1+I/Ki+S, where ν 0 is the initial velocity in the absence and presence of the inhibitor, S and I are the concentrations of substrate and inhibitor, respectively; ν max is the maximum velocity, K m is the Michaelis–Menten constant. The replot of slopes (K m/ν max) from Lineweaver–Burk plot versus the inhibitor concentration afforded K i value as well.
# [2] = target: T2, hCA I (Homo sapiens, UniProt P00915); test: Stopped-flow CO2 hydrase assay; format: biochemical; conditions: mean from 3 assays, read-out: K i hCA I
# T2 construct: made in house
# T2 sequence (P00915 whole entry): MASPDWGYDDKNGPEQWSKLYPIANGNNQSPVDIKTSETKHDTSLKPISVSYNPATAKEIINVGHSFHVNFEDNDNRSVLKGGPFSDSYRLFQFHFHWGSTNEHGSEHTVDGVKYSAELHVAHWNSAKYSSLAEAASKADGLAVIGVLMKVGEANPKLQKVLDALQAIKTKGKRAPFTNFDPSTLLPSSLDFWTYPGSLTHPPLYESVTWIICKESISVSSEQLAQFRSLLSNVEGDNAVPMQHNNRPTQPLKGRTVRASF
# Protocol: (§1) An Applied Photophysics stopped‐flow instrument was used to assay the CA‐catalyzed CO2 hydration activity. […] The uncatalyzed rates were determined in the same manner and subtracted from the total observed rates. Stock solutions of the inhibitor (0.1 mM) were prepared in distilled−deionized water, and dilutions up to 0.01 nM were done thereafter with the assay buffer. Inhibitor and enzyme solutions were preincubated together for 15 min at room temperature before the assay, to allow for the formation of the E − I complex. The inhibition constants were obtained by nonlinear least‐squares methods using PRISM 3 and the Cheng–Prusoff equation as reported earlier and represent the mean from at least three different determinations. All CA isoforms were recombinant proteins obtained in house, as reported earlier.
# [3] = target: T3, hCA II (Homo sapiens, UniProt P00918); test: Stopped-flow CO2 hydrase assay; format: biochemical; conditions: mean from 3 assays, read-out: K i hCA II
# T3 construct: made in house
# Protocol: as §1
# [4] = target: T4, hCA VA (Homo sapiens, UniProt P35218); test: Stopped-flow CO2 hydrase assay; format: biochemical; conditions: mean from 3 assays, read-out: K i hCA VA
# T4 construct: made in house
# T4 sequence (P35218 39-305): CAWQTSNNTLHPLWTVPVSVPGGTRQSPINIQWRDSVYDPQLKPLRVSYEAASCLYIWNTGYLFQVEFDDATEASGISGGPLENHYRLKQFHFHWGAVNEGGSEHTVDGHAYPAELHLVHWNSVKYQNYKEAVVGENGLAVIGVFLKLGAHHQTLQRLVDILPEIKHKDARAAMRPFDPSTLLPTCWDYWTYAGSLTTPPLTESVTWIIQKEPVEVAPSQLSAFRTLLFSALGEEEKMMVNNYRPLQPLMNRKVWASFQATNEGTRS
# Protocol: as §1
# [5] = target: T5, hCA XII (Homo sapiens, UniProt O43570); test: Stopped-flow CO2 hydrase assay; format: biochemical; conditions: mean from 3 assays, read-out: K i hCA XII
# T5 construct: made in house
# T5 sequence (O43570 25-354): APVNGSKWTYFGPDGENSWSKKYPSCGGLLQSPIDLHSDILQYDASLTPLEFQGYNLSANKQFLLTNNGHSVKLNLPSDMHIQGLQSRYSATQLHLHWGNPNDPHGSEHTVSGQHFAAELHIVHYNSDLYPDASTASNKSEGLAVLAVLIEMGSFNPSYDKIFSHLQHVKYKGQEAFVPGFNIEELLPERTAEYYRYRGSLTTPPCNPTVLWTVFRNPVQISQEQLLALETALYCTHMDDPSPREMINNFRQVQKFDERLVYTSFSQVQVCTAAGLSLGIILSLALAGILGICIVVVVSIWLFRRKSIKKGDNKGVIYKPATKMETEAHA
# Protocol: as §1
# [6] = system: hCA VB; test: Stopped-flow CO2 hydrase assay; format: biochemical, human; conditions: K i VA / K i VB
# Protocol: as §1
# [7] = target: T6, hCA IX (Homo sapiens, UniProt Q16790); format: biochemical; conditions: read-out: K i hCA IX
# T6 construct: made in house
# Protocol: as §1
# [8] = target: T7, hCA VII (Homo sapiens, UniProt Q9Y2D0); test: Stopped-flow CO2 hydrase assay (supplement table column); format: biochemical
# T7 construct: made in house
# T7 sequence (Q9Y2D0 34-317): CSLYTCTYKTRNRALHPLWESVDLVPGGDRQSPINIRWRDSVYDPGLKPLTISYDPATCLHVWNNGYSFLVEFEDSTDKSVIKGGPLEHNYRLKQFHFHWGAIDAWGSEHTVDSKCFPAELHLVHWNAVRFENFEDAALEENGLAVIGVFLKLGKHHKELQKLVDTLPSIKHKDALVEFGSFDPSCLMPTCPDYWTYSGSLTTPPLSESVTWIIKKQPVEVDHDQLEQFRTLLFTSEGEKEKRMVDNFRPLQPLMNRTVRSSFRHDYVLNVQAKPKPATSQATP
# Protocol: An Applied Photophysics stopped‐flow instrument was used to assay the CA‐catalyzed CO2 hydration activity. Phenol red (at a concentration of 0.2 mM) was used as an indicator, working at the absorbance maximum of 557 nm, with 20 mM Hepes (pH 7.4) as a buffer, and 20 mM Na2SO4 (to maintain constant ionic strength), following the initial rates of the CA‐catalyzed CO2 hydration reaction for a period of 10 − 100 s. The CO2 concentrations ranged from 1.7 to 17 mM for the determination of the kinetic parameters and inhibition constants. Enzyme concentrations ranged between 5 and 12 nM. For each inhibitor, at least six traces of the initial 5%−10% of the reaction were used to determine the initial velocity. The uncatalyzed rates were determined in the same manner and subtracted from the total observed rates. Stock solutions of the inhibitor (0.1 mM) were prepared in distilled−deionized water, and dilutions up to 0.01 nM were done thereafter with the assay buffer. Inhibitor and enzyme solutions were preincubated together for 15 min at room temperature before the assay, to allow for the formation of the E − I complex. The inhibition constants were obtained by nonlinear least‐squares methods using PRISM 3 and the Cheng–Prusoff equation as reported earlier and represent the mean from at least three different determinations. […]
# [9] = target: T1, PL (pancreatic lipase) from porcine pancreas; test: Pancreatic lipase inhibition, spectrophotometric p-nitrophenyl butyrate assay; conditions: IC50 (µM) ± SD, p-nitrophenyl butyrate substrate, 37°C
# Protocol: The inhibition of PL (from porcine pancreas; see Supporting Information) was assessed using previously described spectrophotometric methods [15, 16, 30]. […] Thus, a lower value indicates higher inhibitory activity.
# The reactions were incubated at 37°C for 10 min. Then, the substrate p‐nitrophenyl butyrate (3.2 mM in H2O/DMF 70:30, 10 μL) was pipetted, and the microplate was incubated at 37°C for 30 min under moderate shaking.
# [10] = target: T1, PL (pancreatic lipase) from porcine pancreas; conditions: cited from earlier work
Compound,Inhibition mode ([1]; Lineweaver-Burk plot),Ki ([1]; from slope of L-B plot lines versus inhibitor concentration) [µM],v max of the reaction ([1]; not affected by the competitive inhibitor) [mM/min],Ki [2] [µM],Ki [3] [µM],Ki [4] [nM],Ki [5] [nM],Inhibition ratio hCA VA versus hCA VB (VB more potently inhibited) [6] [fold],Ki [7] [nM],Ki [8] [nM],IC50 [9],Inhibition mode [10]
"O=C(/C=C/c1ccc(O)c2c1[C@H](C(=O)O)[C@@H](c1ccc(O)c(O)c1)O2)O[C@H](Cc1ccc(O)c(O)c1)C(=O)O [LTS0059529, Lithospermic acid]",competitively; also recorded: Competitive,33.1 ± 1.6,0.091 ± 0.002,> 100,> 100,690 ± 10,4.8 ± 3,1.15,310 ± 10,600 ± 20,5.4 µM and 5.45 µM,–
"CCCCCCCCCCC[C@@H](C[C@@H]1OC(=O)[C@H]1CCCCCC)OC(=O)[C@H](CC(C)C)NC=O [ORL, Orlistat]",–,–,–,–,–,–,–,–,–,–,–,Competitive

# — article PMC12010950, “Discover the Power of Lithospermic Acid as Human Carbonic Anhydrase VA and Pancreatic Lipase Inhibitor Through In Silico and In Vitro Studies” (Archiv Der Pharmazie, 2025)
